Assay results as given in patent publication US20160095923A1, “ORAL COMPOSITION COMPRISNG (+)-CATECHIN” (VALORE, priority 2013, published 2016).

Tests used:
[1] = Bioavailability after oral administration or intravenous injection in Wistar rats (free/total polyphenol in plasma, LC-MS/MS); settings: per os
Experimental: (§1) The experimental results described below were obtained on the basis of a study carried out in healthy human beings and in healthy Wistar rats weighing approximately 250 grams.
An acclimation period was observed before beginning the experiments.
The rats received an administration per os of a volume of 5 ml of a solution of active product.
(§2) With regard to taking the blood samples from the rats and from the human beings, the blood was collected in tubes internally coated with EDTA and was then centrifuged at 3000 rpm (revolutions per minute) at ambient temperature for 45 min, and then for 15 min at a temperature of 4° C. The plasma was then collected and stored at −70° C. before analysis.
(§3) The analytical technique (LC-MS/MS for Liquid Chromatography coupled to tandem Mass Spectrometry) for measuring the active substance in the blood was based on the method described by Mata-Bilbao et al., published in 2007 in the Journal of Agricultural and Food Chemistry, volume 55, page 8857.
(§4) The free (+)-catechin was extracted from the plasma with a solution of phosphoric acid, EDTA and ascorbic acid and was then purified by SPE (solid phase extraction); in particular, it is an Oasis™ HLB extraction which is analyzed by LC-MS/MS. The quantification was carried out according to a standard calibration procedure with (+/−)-catechin-2,3,4-^13C3 as internal standard (SI).
The procedure is identical with regard to the extraction and the quantification of free quercetin or ECGC in the blood.
With regard to the extraction and quantification of the total (+)-catechin, the procedure is the same as that applied to the free (+)-catechin, with the exception of the fact that an additional step prior to the purification by SPE is carried out.
Each of the mixtures is then solubilized in water.
Each of the mixtures is solubilized in water.

[2] = Bioavailability after oral administration in human beings (free monomeric (+)-catechin in plasma, LC-MS/MS)
Experimental: as §1, §2, §3, §4
This complex salt is administered to a group A of 5 healthy volunteers.
This ct parameter makes it possible to calculate, from the data of table 1, the bioavailability of the (+)-catechin expressed in ng h/ml.

Solubility in water = assay type: physicochemical
rat skin = test: Total incorporation and incorporation into collagen of 3H-proline in the skin; assay type: in vivo, Wistar rats; settings: 100 mg/kg by gavage for 5 days
Experimental: To do this, a study was carried out in vivo on a batch of 24 female Wistar rats weighing from 95 to 115 g, divided into two groups C and D, each of 12 rats. For each group, the radioactive 3H-hydroxyproline, the specific activity of which is 13.6 Ci/10^−3 mol, was administered to all the animals by intraperitoneal injection of proline-L-(5-3H) at a dose, relative to the weight of the individuals, of 1 mCi/kg, which represents an activity in terms of radioactive 3H-proline of 100 μCi/individual.
6 rats of each group received a treatment based on monomeric (+)-catechin by gavage in a proportion of 100 mg/kg for 5 days before sacrifice. […] The group C received monomeric (+)-catechin hydrochlorolysinate, while the group D received monomeric (+)-catechin ascorbolysinate.
In table 8, the level of incorporation is measured by the number of disintegrations of the radioactive 3H-hydroxyproline per minute (dpm) per mg of dry weight. The higher this number, the higher the concentration of 3H-hydroxyproline.
In this comparative example, a group E of 12 Wistar rats weighing from 95 to 115 g, in which radioactive 3H-hydroxyproline, the specific activity of which is 13.6 Ci/10^−3 mol, was administered to all the individuals by intraperitoneal injection of proline-L-(5-3H) at a dose, relative to the weight of the individuals, of 1 mCi/kg, which represents an activity in terms of radioactive 3H-proline of 100 ρCi/individual.
6 rats of each group received a treatment based on pure monomeric (+)-catechin by gavage in a proportion of 100 mg/kg for 5 days before sacrifice.
In table 9, the level of incorporation is measured by the number of disintegrations of the radioactive 3H-hydroxyproline per minute (dpm) per mg of dry weight. The higher this number, the higher the concentration of 3H-hydroxyproline.

[3] = free catechin, dose equivalent to 100 mg/kg catechin, 5 rats
[4] = free catechin, equivalent to 25 mg/kg, 3 rats (comparative example 4)
[5] = free catechin, equivalent to 25 mg/kg, 5 rats, mixture dissolved in water (comparative examples 6-9)
[6] = total (+)-catechin, equivalent to 25 mg/kg, 3 rats
[7] = group B, oral 1 g pure catechin, free catechin

Oc1cc(O)c2c(c1)O[C@H](c1ccc(O)c(O)c1)[C@@H](O)C2 [CP, (+)-catechin]
Δct (difference of ct to CP) ([1]; free catechin, dose equivalent to 100 mg/kg catechin): 0%
T (max) [1, 3]: 1 h
c (max) [1, 3]: 716 ng/mL
ct [1, 3]: 96 238 ng min/ml
Δct (difference of ct to CP) ([1]; free catechin, equivalent to 25 mg/kg (comparative example 4)): 0%
Δct (difference of ct to CP) ([1]; free catechin, equivalent to 25 mg/kg (comparative examples 7-9)): 0%
T (max) [1, 4]: 0.5 h
c (max) [1, 4]: 154 ng/mL
ct [1, 4]: 21 145 ng min/ml
T (max) [1, 5]: 1 h
c (max) [1, 5]: 580 ng/mL
Δct (difference of ct to CP) ([1]; total (+)-catechin, equivalent to 25 mg/kg): 0%
T (max) [1, 6]: 0.5 h
c (max) [1, 6]: 2200 ng/mL
ct [1, 6]: 273 875 ng min/ml
plasma concentration (cc) of free monomeric (+)-catechin ([2]; group B, oral 1 g pure catechin, T 0.5 h): 59 ± 61 ng/mL
plasma concentration (cc) of free monomeric (+)-catechin ([2]; group B, oral 1 g pure catechin, T 1 h): 266 ± 147 ng/mL
plasma concentration (cc) of free monomeric (+)-catechin ([2]; group B, oral 1 g pure catechin, T 2 h): 230 ± 87 ng/mL
plasma concentration (cc) of free monomeric (+)-catechin ([2]; group B, oral 1 g pure catechin, T 3 h): 226 ± 38 ng/mL
plasma concentration (cc) of free monomeric (+)-catechin ([2]; group B, oral 1 g pure catechin, T 4 h): 128 ± 51 ng/mL
plasma concentration (cc) of free monomeric (+)-catechin ([2]; group B, oral 1 g pure catechin, T 6 h): 27 ± 13 ng/mL
T (max) [2, 7]: 1.20 h
ct (total concentration, area under curve over 6 h) [2, 7]: 904 ± 163 ng·h/mL
c (max) ([2]; oral 1 g pure catechin, free catechin): 280 ng/mL
T (max) ([2]; oral, humans, as stated in summary text): 1.33 h
c (max) related to 0.92 g of pure (+)-catechin ([2]; oral, scaled from 1 g to 0.92 g dose): 258 ng/mL
ct related to 0.92 g of pure (+)-catechin ([2]; oral, scaled from 1 g to 0.92 g dose, listed as pure (+)-catechin): 832 ± 150 ng·h/mL
solubility in water (Solubility in water; at 20° C.): 0.9 g per liter
solubility in water, times lower than in the form of a complex (Solubility in water; pure catechin versus complex with basic amino acid): 400 times
increase in the level of incorporation versus control (rat skin): +16%
level of incorporation into collagen (IC) of 3H-hydroxyproline in rat skin (rat skin; treated subgroup): 1124 ± 51 dpm/mg
level of total incorporation (IT) of 3H-hydroxyproline in rat skin (rat skin; treated subgroup): 5689 ± 410 dpm/mg
